Results on 27 compounds are retold here after ChEMBL document CHEMBL3351620, “Structure-activity relationships and molecular modeling studies of novel arylpiperazinylalkyl 2-benzoxazolones and 2-benzothiazolones as 5-HT(7) and 5-HT(1A) receptor ligands” (Eur J Med Chem, 2014).

One may read the Ki as the dissociation constant of the complex between target and ligand, obtained from inhibition or displacement. Low readings indicate a stronger hold on the target, high ones a looser hold on the target. A word on the inhibition: it is how much of the control response was suppressed. Low readings indicate a response near the control, high ones a response far below the control.

Experiment [1] deals with T1, 5-hydroxytryptamine receptor 7 (Homo sapiens, UniProt P34969). Put plainly: Displacement of [3H]5-HT from human 5HT7 receptor transfected in […] cells after 30 mins by liquid scintillation spectrometry. Format: cell-based. In general terms: In a radioligand displacement assay an active substance lowers the binding of a labelled ligand.
T1 sequence (P34969 whole entry): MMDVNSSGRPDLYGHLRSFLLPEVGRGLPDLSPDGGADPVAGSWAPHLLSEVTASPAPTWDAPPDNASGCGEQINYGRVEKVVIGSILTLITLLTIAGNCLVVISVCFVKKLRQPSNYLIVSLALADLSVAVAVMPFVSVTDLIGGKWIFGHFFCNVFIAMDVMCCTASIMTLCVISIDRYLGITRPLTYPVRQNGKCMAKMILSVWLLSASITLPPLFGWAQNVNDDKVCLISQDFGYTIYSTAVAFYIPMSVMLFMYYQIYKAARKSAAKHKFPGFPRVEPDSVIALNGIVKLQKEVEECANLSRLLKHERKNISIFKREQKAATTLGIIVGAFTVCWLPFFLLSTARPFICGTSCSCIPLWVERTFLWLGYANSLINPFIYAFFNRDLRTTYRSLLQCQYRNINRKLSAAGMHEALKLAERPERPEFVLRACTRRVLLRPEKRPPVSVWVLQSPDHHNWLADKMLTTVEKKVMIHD
The target of experiment [2] is T2, 5-hydroxytryptamine receptor 1A (Homo sapiens, UniProt P08908).
T2 sequence (P08908 whole entry): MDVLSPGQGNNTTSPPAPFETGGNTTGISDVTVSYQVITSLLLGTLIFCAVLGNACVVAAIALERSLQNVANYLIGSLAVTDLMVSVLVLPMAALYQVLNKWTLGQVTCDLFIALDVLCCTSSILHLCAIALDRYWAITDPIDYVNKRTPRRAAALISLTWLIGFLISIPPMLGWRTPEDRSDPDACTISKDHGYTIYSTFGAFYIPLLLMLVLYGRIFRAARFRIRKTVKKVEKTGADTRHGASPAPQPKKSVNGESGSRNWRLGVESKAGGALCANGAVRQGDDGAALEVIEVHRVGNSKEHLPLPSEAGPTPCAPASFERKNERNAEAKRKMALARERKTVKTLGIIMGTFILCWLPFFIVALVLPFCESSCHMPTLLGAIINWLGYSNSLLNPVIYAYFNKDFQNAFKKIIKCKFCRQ
Put plainly: Displacement of [3H]8-OH-DPAT from human 5-HT1A receptor transfected in […] cells after 30 mins by liquid scintillation spectrometry. Format: cell-based.

Experiment [3] is filed under the species Homo sapiens. The experiment is described as follows: Selectivity ratio of Ki for human 5HT1A receptor to Ki for human 5HT7 receptor.
Experiment [4] has as its target T1, 5-hydroxytryptamine receptor 7. The experiment is described as follows: Displacement of [3H]5-HT from human 5HT7 receptor transfected in […] cells ay 1 uM after 30 mins by liquid scintillation spectrometry. The class given is cell-based.

On to `O=c1sc2ccccc2n1CCCCN1CCN(c2ccccc2)CC1`, for which the inhibitory constant (Ki) in experiment [1] was 36.5 nM; in experiment [2], 913 nM. The Ratio Ki in experiment [3] was 25.

With `COc1ccccc1N1CCN(CCCCCCCn2c(=O)oc3ccccc32)CC1`, the figures for the Ki in experiment [1] and in experiment [2] were 7.73 nM and 0.19 nM, respectively. Also, the Ratio Ki in experiment [3] is 0.02.

For `O=c1oc2ccccc2n1CCCCCN1CCN(c2ccccc2)CC1`, the Ki in experiment [1] worked out at 57.4 nM; in experiment [2] it was 19.2 nM. The Ratio Ki in experiment [3] stood at 0.33.

Turning to `O=c1sc2ccccc2n1CCCCN1CCN(Cc2ccccc2)CC1`, the Ki came to 41.9 nM in experiment [1] and 695 nM in experiment [2]. For the same compound, the Ratio Ki in experiment [3] turned out to be 16.6.

Take `O=c1sc2ccccc2n1CCCCN1CCN(c2cccc(Cl)c2)CC1`: the inhibition constant (Ki) in experiment [1] turned out to be 1.72 nM; in experiment [2], 6.13 nM. Moreover, the Ratio Ki in experiment [3] amounted to 3.56.

For `O=c1oc2ccccc2n1CCCCN1CCN(c2ccccc2)CC1`, the results for the Ki in experiment [1] and in experiment [2] were 26.3 nM and 90.3 nM, respectively. Besides, the Ratio Ki in experiment [3] stood at 3.43.

In the case of `O=c1sc2ccccc2n1CCCCN1CCN(c2ccc(Cl)cc2)CC1`, the Ki in experiment [1] stood at 46.8 nM; in experiment [2], 83.3 nM. Also, the Ratio Ki in experiment [3] amounted to 1.77.

For `COc1ccccc1N1CCN(CCCCC(=O)NC2CCCc3ccccc32)CC1` (stereo not drawn), the inhibition constant (Ki) in experiment [1] came out at 9 nM; in experiment [2], 6.05 nM.

Regarding `O=c1oc2ccccc2n1CCCCCCCN1CCN(c2ccccc2)CC1`, the Ki in experiment [1] came to 45.6 nM; in experiment [2] it was 29.8 nM. Moreover, the Ratio Ki in experiment [3] was 0.65.

`O=c1oc2ccccc2n1CCCCCCN1CCN(c2ccccc2)CC1`: the Ki in experiment [1] is 14.1 nM; in experiment [2] it was 3.96 nM. In addition, the Ratio Ki in experiment [3] worked out at 0.28.

For the compound `O=c1sc2ccccc2n1CCCCCCCN1CCN(c2ccccc2)CC1`, the Ki is 7.58 nM in experiment [1] and 0.27 nM in experiment [2]. In addition, in experiment [3], the Ratio Ki came out at 0.03.

Take `O=C1Nc2cc(F)ccc2C1CCCCN1CCN(c2cccc(Cl)c2)CC1` (stereo not drawn): the Ki in experiment [1] was determined as 118 nM; in experiment [2], 6.7 nM.

As for `COc1ccccc1N1CCN(CCCCCn2c(=O)oc3ccccc32)CC1`, the Ki in experiment [1] was 5.9 nM; in experiment [2] it was 11.9 nM. For the same compound, the Ratio Ki in experiment [3] was found to be 2.01.

For `O=c1sc2ccccc2n1CCCCCN1CCN(c2ccccc2)CC1`, the inhibition constant Ki turned out to be 20 nM in experiment [1] and 95.7 nM in experiment [2]. Besides, the Ratio Ki in experiment [3] is 4.78.

Take `O=c1sc2ccccc2n1CCCCN1CCc2ccccc2C1`: the Ki was determined as 2.84 nM in experiment [1] and 74.9 nM in experiment [2]. For the same compound, the Ratio Ki in experiment [3] was 26.4.

Take `COc1ccccc1N1CCN(CCCCn2c(=O)sc3ccccc32)CC1`: the values for the Ki in experiment [1] and in experiment [2] were 7.77 nM and 24.6 nM, respectively. Further, the Ratio Ki in experiment [3] was 3.16.

Turning to `Cc1ccccc1N1CCN(CCCCn2c(=O)sc3ccccc32)CC1`, the inhibitory constant (Ki) in experiment [1] amounted to 0.99 nM; in experiment [2] it was 10.4 nM. The Ratio Ki in experiment [3] is 10.5.

As for `COc1ccccc1N1CCN(CCCCCn2c(=O)sc3ccccc32)CC1`, the figures for the Ki in experiment [1] and in experiment [2] were 5.16 nM and 7.13 nM, respectively. Also, the Ratio Ki in experiment [3] stood at 1.38.

The compound `O=C1c2cccc3cccc(c23)N1CCCCCN1CCN(c2ccccc2)CC1` returned an inhibition in experiment [4] of 92%.

With `O=c1sc2ccccc2n1CCCCCCN1CCN(c2ccccc2)CC1`, the Ki in experiment [1] amounted to 2.96 nM; in experiment [2], 0.91 nM. In addition, the Ratio Ki in experiment [3] is 0.3.

For `COc1ccccc1N1CCN(CCCCCCn2c(=O)sc3ccccc32)CC1`, the inhibitory constant (Ki) was determined as 2.9 nM in experiment [1] and 0.43 nM in experiment [2]. Moreover, the Ratio Ki in experiment [3] came out at 0.14.

For `COc1ccccc1N1CCN(CCCn2c(=O)[nH]c3ccccc32)CC1`, the Ki in experiment [1] amounted to 3.4 nM; in experiment [2], 40 nM.

In the case of `COc1ccccc1N1CCN(CCCCCCn2c(=O)oc3ccccc32)CC1`, the inhibition constant (Ki) in experiment [1] is 11.7 nM; in experiment [2], 1.3 nM. Further, the Ratio Ki in experiment [3] is 0.11.

Take `O=C1Cc2ccccc2N1CCCCN1CCN(c2cccc3ccccc23)CC1`: the inhibition constant (Ki) is 22 nM in experiment [1] and 47 nM in experiment [2].

Take `COc1ccccc1N1CCN(CCCCCCCn2c(=O)sc3ccccc32)CC1`: the inhibition constant Ki came to 8.49 nM in experiment [1] and 0.21 nM in experiment [2]. In addition, the Ratio Ki in experiment [3] stood at 0.02.

Regarding `O=c1[nH]c2ccccc2n1CCCCCN1CCN(c2ccc(Cl)cc2)CC1`, the Ki in experiment [2] is 454 nM.

For `COc1ccccc1N1CCN(CCCCn2c(=O)oc3ccccc32)CC1`, the figures for the Ki in experiment [1] and in experiment [2] were 10.3 nM and 19.2 nM, respectively. The Ratio Ki in experiment [3] came to 1.85.
